# Marks after values point to notes of the source that are not given here.
# Key:
# ICR mice = experiment: in vivo; conditions: female ICR mice; single-dose ip
# Method: This experiment was to investigate the toxic effects of single-dose intraperitoneal administration on ICR mice and determine the maximum tolerated dose (MTD) of each subject. Maximum tolerated dose (MTD) refers to the dose that may not cause an animal to die, may not cause the animal to suffer weight loss exceeding 10% (compared with Day 0), or may not produce significant side effects.
# (§1) The corresponding amount of test substance was taken in a 5 mL glass tube and dissolved in ethanol with a 5 mm magnetic stirrer for stirring. After dissolving completely, Cremophor EL was added with continuous stirring. The marked amount of saline was added and mixed evenly before use. The volume ratio of ethanol, Cremophor EL, and physiological saline was 5:5:90.
# Varieties and lines: ICR mice; level: SPF; sex: female.
# Method of administration: ip. The dose was reduced in case of animal death, till an animal survived; the dose was increased in case of no animal death; the test was ended when the animals survived normally at the given high dose. Finally, the MTD of the mice on the test substances was determined according to the test results. The animals were observed continuously for 7 days after acute administration.
# During the experiment, all animals were under detailed and continuous clinical observation for […], twice a day (10:00 am, 16:00 pm) after administration. The observation included but not limited to: skin, hair, ear, nose, mouth, chest, abdomen, external genitalia, limbs and feet, respiratory and circulatory system, autonomic effects (such as salivation), nervous system (such as tremor, convulsions, stress response and abnormal behavior).
# The body of animals was weighed before administration, and then weighed and recorded at the same time each day.
# The observation results, animal body weight, and animal survival after one week of administration were recorded in detail every day.
# [1] = Method: To determine the growth inhibition effect and toxicity of the cytidine derivative samples of the present invention on the transplanted tumor of nude mice bearing colon cancer HCT-116.
# as §1
# Varieties and lines; Balb/c Nude mice; level: SPF; sex: female.
# 4.2 Animal inoculation and grouping: Each nude mouse was inoculated subcutaneously with 0.1 mL of cell suspension (3×10^6 cell/mouse) at right side of hind limb in a sterile stale. When the tumor grew to about 60-150 mm^3, the nude mice with similar tumor volume and desirable shape were selected (it would be better to select single spherical shape, no irregular shape or multiple tumors grouped together) for grouping, 6 mice a group. The grouping is as follows:
# The control group, namely the model control group, was injected with a mixture of ethanol, Cremophor EL, and saline (5:5:90).
# Those mice were weighed three times a week.
# All clinical symptoms of each animal should be recorded at the beginning of the test and during the test. The observations should be made at the same time each day.
# An animal would be killed by CO2 when its weight loss was more than 20%, when it was about to die, or when its tumor volume exceeded 2800 mm^3. The tumor was separated and weighed, and the animal was autopsied and observed to evaluate and record whether there were pathological changes in the organs.
# The data were expressed as Mean±SEM unless specially provided; Non-pairing T test was performed for the data between the two groups. P<0.05 was considered as significant difference.
# [2] = tested on: HCT-116 colon cancer xenografts; experiment: Tumor growth inhibition of HCT-116 colon cancer xenografts in tumor-bearing nude mice (tumor volume, TGI %, RTV, T/C %); assay type: in vivo, Balb/c Nude mice
# Method: 4.1 Tumor cells: colon cancer HCT-116 cells, purchased from the Institute of Cell Biology, Chinese Academy of Sciences. The cells were incubated by F-12 medium (containing 10% FBS) in carbon dioxide incubator at 37° C. and in saturated humidity, with 5% CO2 and 95% air in volume fraction. Before inoculation, the cells at logarithmic phase were taken, and digested with 0.25% trypsin, washed once with PBS and resuspended in PBS for counting. The cells were resuspended in serum-free medium and adjusted to about 3×10^7 cell/mL.
# The grouping is as follows:
# The formations of tumor at the inoculation site of each group of nude mice were observed. The diameter of tumor nodule (D) was measured three times a week with round hole ruler, and the volume of tumor nodule (V) was calculated according to the following formula: […].
# Anti-tumor activity was evaluated by tumor growth inhibition rate TGI (%) and relative tumor proliferation rate T/C (%).
# The relative tumor volume (RTV) was calculated as: RTV=Vt/V0, where V0 was the tumor volume when they were grouped and administered, and Vt was the tumor volume at the time of measurement.
# The relative proliferation rate T/C (%) was calculated as: […].
# TRTV: RTV of the treatment group; CRTV: RTV of the control group.
# P<0.05 was considered as significant difference.
# [3] = Day 0, G3-G9 groups, single IP dose, Mean±SEM
# [4] = Day 4, G3-G9 groups, single IP dose, Mean±SEM
# [5] = Day 6, G3-G9 groups, single IP dose, Mean±SEM
# [6] = Day 8, G3-G9 groups, single IP dose, Mean±SEM
# [7] = Day 11, G3-G9 groups, single IP dose, Mean±SEM
# [8] = Day 13, G3-G9 groups, single IP dose, Mean±SEM
# [9] = Day 15, G3-G9 groups, single IP dose, Mean±SEM
# [10] = Day 18, G3-G9 groups, single IP dose, Mean±SEM
# [11] = Day 20, G3-G9 groups, single IP dose, Mean±SEM
# [12] = Day 22, G3-G9 groups, single IP dose, Mean±SEM
compound,measurement,setting,value
"O=C(Nc1ccn([C@@H]2O[C@H](CO)[C@@H](O)C2(F)F)c(=O)n1)OCc1ccccc1 [Compound G4, 4-N-(carboxybenzyl)-2′-deoxy-2′,2′-difluorocytidine]","dose that could be tolerated (maximum tolerated dose, MTD)",ICR mice,350 mg/kg
same,"Weight change rate, Day 0",[1]; [3],0.00 ± 0.00%
same,"Weight of mice, Day 0",[1]; [3],20.20 ± 0.55 g
same,weights of animals on Day 4 after administration,"[1]; Day 4 (G7: Day 4 and Day 6), p<0.05",significantly reduced
same,"Weight change rate, Day 4",[1]; [4],−10.91 ± 3.45 %
same,"Weight of mice, Day 4",[1]; [4],18.22 ± 1.19 g
same,weight loss rate on Day 4 after administration,"[1]; Day 4, G4 350 mg/kg, G5 325 mg/kg, G7 250 mg/kg, single IP",10.91±3.45%
same,animals died on Day 4 after administration,"[1]; Day 4, G4 350 mg/kg, G8 350 mg/kg, G6 300 mg/kg, single IP, 6 mice a group",1
same,"Weight change rate, Day 6",[1]; [5],−1.87 ± 2.96%
same,"Weight of mice, Day 6",[1]; [5],20.06 ± 1.18 g
same,"Weight change rate, Day 8",[1]; [6],0.30 ± 1.84%
same,"Weight of mice, Day 8",[1]; [6],20.48 ± 0.97 g
same,"Weight change rate, Day 11",[1]; [7],3.85 ± 5.08%
same,"Weight of mice, Day 11",[1]; [7],21.08 ± 0.76 g
same,"Weight change rate, Day 13",[1]; [8],7.64 ± 4.55%
same,"Weight of mice, Day 13",[1]; [8],21.86 ± 0.67 g
same,"Weight change rate, Day 15",[1]; [9],8.84 ± 4.33%
same,"Weight of mice, Day 15",[1]; [9],22.10 ± 0.57 g
same,"Weight change rate, Day 18",[1]; [10],9.28 ± 3.53 %
same,"Weight of mice, Day 18",[1]; [10],22.20 ± 0.43 g
same,"Weight change rate, Day 20",[1]; [11],10.50 ± 4.03 %
same,"Weight of mice, Day 20",[1]; [11],22.44 ± 0.49 g
same,"Weight change rate, Day 22",[1]; [12],11.39 ± 4.05%
same,"Weight of mice, Day 22",[1]; [12],22.62 ± 0.49 g
same,Day 22 Mortality,"[1]; Day 22, single IP dose (mg/kg)",17%
same,body weight compared with model control group,"[1]; G4 Day 18 to Day 20 (p<0.05), G5 Day 13 to Day 20 (p<0.05~0.01)",significantly increased
same,clinical symptoms,"[1]; after single IP dose, compared with model control group","3 animals had less activity, loss of body weight, and body surface temperature lower than normal"
same,Day 0 (RTV),[2]; [3],1.00 ± 0.00
same,"Tumor volume, Day 0",[2]; [3],63.44 ± 18.74** mm^3
same,Day 4 (TGI %),"[2]; Day 4, G3-G9 groups, single IP dose",83.29%
same,Day 4 (RTV),[2]; [4],0.70 ± 0.13
same,"Tumor volume, Day 4",[2]; [4],44.53 ± 13.75** mm^3
same,Day 6 (TGI %),"[2]; Day 6, G3-G9 groups, single IP dose",89.82%
same,Day 6 (RTV),[2]; [5],0.68 ± 0.10
same,"Tumor volume, Day 6",[2]; [5],43.04 ± 10.69** mm^3
same,Day 8 (TGI %),"[2]; Day 8, G3-G9 groups, single IP dose",91.66%
same,Day 8 (RTV),[2]; [6],0.69 ± 0.13
same,"Tumor volume, Day 8",[2]; [6],43.83 ± 12.73** mm^3
same,tumor inhibition effect,[2]; Day 8 to Day 13 after single-dose intraperitoneal administration,good tumor inhibition effect
same,Day 11 (TGI %),"[2]; Day 11, G3-G9 groups, single IP dose",92.58%
same,Day 11 (RTV),[2]; [7],1.12 ± 0.29
same,"Tumor volume, Day 11",[2]; [7],59.68 ± 11.72** mm^3
same,Day 13 (TGI %),"[2]; Day 13, G3-G9 groups, single IP dose",92.57%
same,Day 13 (RTV),[2]; [8],1.51 ± 0.39
same,"Tumor volume, Day 13",[2]; [8],86.22 ± 24.86** mm^3
same,Day 15 (TGI %),"[2]; Day 15, G3-G9 groups, single IP dose",90.04%
same,Day 15 (RTV),[2]; [9],2.80 ± 0.97
same,"Tumor volume, Day 15",[2]; [9],140.70 ± 34.22** mm^3
same,Day 18 (TGI %),"[2]; Day 18, G3-G9 groups, single IP dose",85.93%
same,Day 18 (RTV),[2]; [10],5.36 ± 1.82
same,"Tumor volume, Day 18",[2]; [10],260.52 ± 51.15** mm^3
same,Day 20 (TGI %),"[2]; Day 20, G3-G9 groups, single IP dose",78.95%
same,Day 20 (RTV),[2]; [11],9.65 ± 3.23
same,"Tumor volume, Day 20",[2]; [11],446.16 ± 65.85** mm^3
same,Day 22 (TGI %),"[2]; Day 22, G3-G9 groups, single IP dose",75.68%
same,Day 22 (RTV),[2]; [12],14.66 ± 5.30
same,"Tumor volume, Day 22",[2]; [12],636.07 ± 78.89** mm^3
same,T/C % on Day 22,"[2]; Day 22, G4 350 mg/kg, G5 325 mg/kg, G7 250 mg/kg, single IP",75.38%
same,relative tumor volume compared with the model control group,"[2]; G4 and G5 Day 4 to Day 18, G7 Day 4 to Day 15 (p<0.05-0.01), G9 only Day 4 (p<0.05)",reduced significantly
same,maximum value of TGI %,"[2]; day of maximum: G3 Day 8, G4 Day 11, G5 Day 11, G9 Day 4, G7 Day 8, single IP",92.58%
same,minimum value of T/C %,"[2]; day of minimum: G4 Day 13, G5 Day 11, G7 Day 8, single IP",17.62%
